The source of these data is patent publication US20130039993A1, “ARGON-BASED INHALABLE GASEOUS MEDICAMENT AGAINST PERIPHERAL ORGAN DEFICIENCIES OR FAILURES” (L'Air Liquide, Societe Anonyme pour l'Etude et …, priority 2010, published 2013).

The test system of test [1] is kidneys isolated from rats. The experiment in a line: Renal morphology of grafted rat kidneys preserved 6 hours in a gaseous atmosphere (standard histology, histochemistry with anti-active caspase-3 and anti-CD10 antibodies). In kind it is in vivo, Wistar rats. As to conditions: grafted kidneys preserved 6 hours in 100% by volume gas; for kidneys showing cell lysis with subconfluent coagulation necrosis (standard histology): share of kidneys of the group. From the text:
(§1) To do this, kidneys isolated from rats intended for a transplantation were used.
(§2) 120 Wistar rats, weighing between 200 g and 250 g, were used while adhering to the Guide for the Care and Use of Laboratory Animals published by the National Institutes of Health.
(§3) The animals were operated upon under general anesthesia and the left kidneys were removed and then preserved in several gaseous atmospheres, namely: • Group A (according to the invention): argon (100% by volume) • Group B (comparative): xenon (100% by volume) • Group C (1st control): air (i.e. essentially N2/O2 mixture) • Group D (2nd control): nitrogen
(§4) The kidneys of a rat are preserved therein for 6 hours before being grafted onto another anesthetized rat according to the conditions previously described. The rats are kept under observation for 14 days.
(§5) In order to carry out an evaluation of the effectiveness of the protection produced by the various gases tested, the renal function and renal morphology of the grafted kidneys were examined.
The renal morphology was evaluated by standard histology and histochemistry using anti-active caspase-3 and anti-CD10 antibodies.

In test [2] the test system is kidneys isolated from rats. The experiment in a line: Renal function of grafted rat kidneys preserved 6 hours in a gaseous atmosphere (creatinine clearance, 24-hour albuminuria). Format: in vivo, Wistar rats. As to conditions: days D7 and D14 after graft, kidney preserved 6 hours in 100% by volume gas; for creatinine clearance of the grafted kidneys: estimated, related back to 100 g of weight, FIG. 1.
Excerpt: as §1, §2, §3, §4, §5
The renal function was evaluated by calculating the creatinine clearance estimated and related back to 100 g of weight, and by measuring the 24-hour albuminuria.

Each structure is given as a SMILES string.

In the case of `[Ar]` [argon], the “CD10 labeling (histochemistry; preservation of the tubule functional structure)” value in test [1] (anti-CD10 antibody) is recorded as “very well preserved”. For the same compound, the “caspase-3 labeling (histochemistry; cell degeneration)” value in test [1] (anti-active caspase-3 antibody) was “discrete and in foci”. The “kidneys showing cell lysis with subconfluent coagulation necrosis (standard histology)” value in test [1] is given as “no kidney of group A under an argon atmosphere exhibited any sign of cell lysis or necrosis”. Also, in test [2] (24-hour albuminuria, FIG. 2), the albuminuria result is on record as “half as much in group A than in the other groups”. Moreover, the “creatinine clearance of the grafted kidneys” value in test [2] is recorded as “preserved a good creatinine clearance”.

`[Xe]` [xenon, reference compound]: the “kidneys showing cell lysis with subconfluent coagulation necrosis (standard histology)” value in test [1] is on record as “⅓”. The “creatinine clearance of the grafted kidneys” value in test [2] is recorded as “slightly better with xenon, but significantly lower compared with argon”.
